36 compounds from the supplement of paper PMC8967900 can be followed below.

Some test systems named below: CCRF-CEM; MHH-CALL-3; COG-LL-394h.
Common to all, as to experiment: selective drug sensitivity score (sDSS, relative to normal bone marrow) (sDSS (score)); higher = more potent and effective on the cell line relative to normal bone marrow cells
Conditions in all cases: 72 h
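Note: ALL cell lines in 384-well plates, five doses spanning 10,000-fold, each plate scaled between vehicle and 100 µmol/L benzalkonium chloride controls, sDSS an adapted area-under-curve metric.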

On to `C/C=C1\NC(=O)[C@H]2CSSCC/C=C/[C@H](CC(=O)N[C@H](C(C)C)C(=O)N2)OC(=O)[C@H](C(C)C)NC1=O` [Romidepsin] (top concentration 1000 nM), for which the entries for the “selective drug sensitivity score” value in the assay on CCRF-CEM, in the assay with MHH-CALL-3 and with COG-LL-394h were 1.16, 9.76 and -0.94, respectively.
Regarding `CN(C)CCOc1ccc(/C(=C(/CCCl)c2ccccc2)c2ccccc2)cc1` [Toremifene] (top concentration 10000 nM), the “selective drug sensitivity score” value was -0.02 in the assay with CCRF-CEM, -2.52 with MHH-CALL-3 and 0.58 in the assay with COG-LL-394h.
For `CCCCc1nc2cc(/C=C/C(=O)NO)ccc2n1CCN(CC)CC` [Pracinostat] (top concentration 10000 nM) the same measures were 4.68, 16.5 and 0.18.
`Cn1ncc(Cl)c1-c1cc(C(=O)N[C@H](CN)Cc2cccc(F)c2)sc1Cl` [Afuresertib] (top concentration 1000 nM): the “selective drug sensitivity score” value in the assay with CCRF-CEM is 5.36; in the assay with MHH-CALL-3, -1.94; with COG-LL-394h, -0.94.
For `Cc1cc(-c2nc(-c3ccc(OC(F)(F)F)cc3)no2)nn1Cc1ccnc(N2CCN(C3CC3)CC2)c1` [BAY_87-2243] (top concentration 1000 nM), in that order: 6.34, -6.36 and 23.5.
Take `CNc1nc(-c2ccc3c(N)n[nH]c3c2)cc(N2C[C@@H](C(=O)NC3CCCCC3)CC[C@H]2C)n1` (top concentration 10000 nM): the “selective drug sensitivity score” value with CCRF-CEM was 1.36; in the assay with MHH-CALL-3, -0.14; in the assay on COG-LL-394h, -0.14.
For `CN1CC[C@H](c2c(O)cc(O)c3c(=O)cc(-c4ccccc4Cl)oc23)[C@H](O)C1` [Alvocidib] (top concentration 10000 nM), the “selective drug sensitivity score” value with CCRF-CEM is 0.6; in the assay on MHH-CALL-3 it was -3.6; in the assay on COG-LL-394h it was -2.5.
For `Cc1cc2c(C(C)C)c(O)c(O)c(C=O)c2c(O)c1-c1c(C)cc2c(C(C)C)c(O)c(O)c(C=O)c2c1O` [AT-101] (top concentration 100000 nM), in that order: 4.88, -0.92 and 3.78.
In the case of `Cc1ccc(C(=O)Nc2cccc(C(F)(F)F)c2)cc1Nc1nc(-c2cccnc2)nc2c1cnn2C` [NVP-BHG712] (top concentration 10000 nM), the “selective drug sensitivity score” value with CCRF-CEM is 3.38; in the assay on MHH-CALL-3 it was 1.48; with COG-LL-394h, -2.32.
Consider `COC[C@H](NC(=O)c1cnc(C)s1)C(=O)N[C@@H](COC)C(=O)N[C@@H](Cc1ccccc1)C(=O)[C@@]1(C)CO1` [Oprozomib] (top concentration 2500 nM), for which the “selective drug sensitivity score” value amounted to 6.9 in the assay on CCRF-CEM, 3.3 with MHH-CALL-3 and 1.2 in the assay on COG-LL-394h.
`Cc1ccc(C(=O)N(CCCN)[C@@H](c2oc3cc(Cl)ccc3c(=O)c2Cc2ccccc2)C(C)C)cc1` (top concentration 100 nM): the “selective drug sensitivity score” value with CCRF-CEM is 2.76; in the assay on MHH-CALL-3, -2.44; in the assay on COG-LL-394h it was -2.24.
For `CCn1c(C(=O)N(C2CC2)C2CC2)cc2c3c(ncn3C)c(Nc3cc(C)n(C)n3)nc21` (top concentration 10000 nM) the same measures were -3.96, -4.36 and -4.36.
For `Nc1nc(Cl)nc2c1ncn2[C@@H]1O[C@H](CO)[C@@H](O)[C@@H]1F` [Clofarabine] (top concentration 10000 nM), the “selective drug sensitivity score” value is 8.2 with CCRF-CEM, 10.9 in the assay on MHH-CALL-3 and -27.4 with COG-LL-394h.
For `Cc1ccc(C(=O)Nc2ccc(Oc3cc4cnn(C)c4cc3-c3cn[nH]c3)c(F)c2)c(=O)n1-c1ccc(F)cc1` [Merestinib] (top concentration 1000 nM), in that order: -0.62, -0.62 and -0.62.
For `Nc1ncn([C@@H]2O[C@H](CO)[C@@H](O)[C@H]2O)c(=O)n1` [Azacitidine] (top concentration 10000 nM), in that order: 9.34, 4.24 and -2.26.
For `CC(C)c1cc(-c2n[nH]c(=O)n2-c2ccc3c(ccn3C)c2)c(O)cc1O` [Ganetespib] (top concentration 1000 nM) the same measures were 2.04, 6.64 and -3.26.
As for `C[C@]1(c2nc3c(C(N)=O)cccc3[nH]2)CCCN1` [Veliparib] (top concentration 10000 nM), the “selective drug sensitivity score” value is -4.18 with CCRF-CEM, 0.42 in the assay on MHH-CALL-3 and -4.18 in the assay with COG-LL-394h.
Take `CC(=O)Nc1cccc(-n2c(=O)n(C3CC3)c(=O)c3c(Nc4ccc(I)cc4F)n(C)c(=O)c(C)c32)c1` [Trametinib] (top concentration 250 nM): the “selective drug sensitivity score” value was -1.84 in the assay on CCRF-CEM, 9.46 with MHH-CALL-3 and -4.34 in the assay on COG-LL-394h.
For the compound `Nc1ncnc2c1nc(Cl)n2[C@@H]1O[C@H](CO)[C@@H](O)[C@H]1O` [8-chloro-adenosine] (top concentration 50000 nM), the “selective drug sensitivity score” value was 9.1 in the assay with CCRF-CEM, -1.6 with MHH-CALL-3 and 5.1 with COG-LL-394h.
For `CCc1nc(C(N)=O)c(Nc2ccc(N3CCC(N4CCN(C)CC4)CC3)c(OC)c2)nc1NC1CCOCC1` [Gilteritinib] (top concentration 1000 nM) the same measures were -2.42, -2.52 and 1.78.
For `CN1CCc2c(c3ccccc3n2Cc2ccc(C(=O)NO)cc2)C1` [Tubastatin_A] (top concentration 10000 nM) the same measures were 2.06, 18 and -0.14.
For the compound `CC1(C)CC[C@]2(NC(=O)C(C)(F)F)CC[C@]3(C)[C@H](C(=O)C=C4[C@@]5(C)C=C(C#N)C(=O)C(C)(C)[C@@H]5CC[C@]43C)[C@@H]2C1` [Omaveloxolone] (top concentration 10000 nM), the “selective drug sensitivity score” value in the assay with CCRF-CEM came out at 0.78; in the assay with MHH-CALL-3, 10.1; with COG-LL-394h it was 0.48.
As to `CC(C)NC(=O)COc1cccc(-c2nc(Nc3ccc4[nH]ncc4c3)c3ccccc3n2)c1` [KD025] (top concentration 5000 nM), the “selective drug sensitivity score” value in the assay with CCRF-CEM was -0.66; with MHH-CALL-3, -5.36; in the assay with COG-LL-394h, -1.36.
For `CC1CCC(n2c3cnccc3c3cnc(Nc4ccc5c(n4)CCN(C(=O)CO)C5)nc32)CC1` (stereo not drawn) [AMG-925] (top concentration 1000 nM), in that order: 3.14, 4.94 and -0.66.
For `Cc1c(C(=O)Nc2ccc(N3C[C@@H](C)O[C@@H](C)C3)nc2)cccc1-c1ccc(OC(F)(F)F)cc1` [Sonidegib] (top concentration 10000 nM) the same measures were -0.12, -3.92 and -0.02.
Consider `O=c1[nH]c(C2CCCN2)nc2c1oc1ccc(Cl)cc12` (stereo not drawn) (top concentration 10000 nM), for which the figures for the “selective drug sensitivity score” value in the assay with CCRF-CEM, in the assay on MHH-CALL-3 and in the assay on COG-LL-394h were 5.8, -0.7 and 0.5, respectively.
For `CNC(=O)c1nn(C)c2c1C(C)(C)Cc1cnc(Nc3ccc(N4CCN(C)CC4)cc3)nc1-2` [Milciclib] (top concentration 10000 nM), in that order: 2.04, -5.26 and 1.74.
Consider `CCc1cnn2c(NCc3ccc[n+]([O-])c3)cc(N3CCCC[C@H]3CCO)nc12` [Dinaciclib] (top concentration 1000 nM), for which the “selective drug sensitivity score” value is -2.54 in the assay with CCRF-CEM, 1.76 in the assay on MHH-CALL-3 and -1.74 with COG-LL-394h.
In the case of `CC(C)c1c(C(=O)Nc2ccccc2)c(-c2ccccc2)c(-c2ccc(F)cc2)n1CC[C@@H](O)C[C@@H](O)CC(=O)O` [Atorvastatin] (top concentration 10000 nM), the entries for the “selective drug sensitivity score” value with CCRF-CEM, with MHH-CALL-3 and in the assay on COG-LL-394h were 0.3, -3.7 and -1.2, respectively.
Turning to `COc1ccc(Cn2ccc3ccc(C(=O)NO)cc32)cc1` (top concentration 10000 nM), the “selective drug sensitivity score” value in the assay on CCRF-CEM came out at 3.34; in the assay on MHH-CALL-3, 1.74; with COG-LL-394h it was 0.94.
On to `CC1(C)OCCn2c1nc1c(N3CCOCC3)nc(-c3cnc(N)nc3)nc12` [GDC-0084] (top concentration 10000 nM), for which the “selective drug sensitivity score” value is 6.9 in the assay with CCRF-CEM, 7 in the assay with MHH-CALL-3 and -0.3 with COG-LL-394h.
For `COc1cccc(OCCCN)c1-c1cc(Nc2cnc(C#N)cn2)n[nH]1` [Prexasertib] (top concentration 10000 nM), in that order: 18.8, 13.4 and -0.96.
For `COc1cccc2c1C(=O)c1c(O)c3c(c(O)c1C2=O)C[C@@](O)(C(=O)CO)C[C@@H]3O[C@H]1C[C@H](N)[C@H](O)[C@H](C)O1` [Doxorubicin] (top concentration 1000 nM), in that order: 7.28, 14.8 and 7.18.
For `CS(=O)(=O)c1ccc(C(=O)Nc2ccc(Cl)c(-c3ccccn3)c2)c(Cl)c1` [Vismodegib] (top concentration 10000 nM), in that order: -1.14, -1.14 and -1.14.
As to `O=C(NC1CCNCC1)c1n[nH]cc1NC(=O)c1c(Cl)cccc1Cl` [AT7519] (top concentration 10000 nM), the figures for the “selective drug sensitivity score” value with CCRF-CEM, with MHH-CALL-3 and in the assay with COG-LL-394h were -3.46, -4.56 and -1.06, respectively.
For `CC(C)(C)c1cnc(CSc2cnc(NC(=O)C3CCNCC3)s2)o1` [SNS-032] (top concentration 10000 nM), in that order: -1.74, -4.44 and -2.04.
